Experimental data: the kinase profiling compilation of Christmann-Franck et al. (2016)

What was measured:
Assay in all cases: radiometric filter-binding kinase assay
[1] = tested on: AKT2 (human), P31751 [S474D]
AURKB (human) = AURKB (human) (UniProt Q96GD4)
CAMKK2 (human) = CAMKK2 (human) (UniProt Q96RR4)
CDK2 CCNA2 (human) = CDK2 CCNA2 (human) (UniProt P20248+P24941)
CHEK1 (human) = CHEK1 (human) (UniProt O14757)
CSNK2A1 (human) = CSNK2A1 (human) (UniProt P68400)
CaMK1 (human) = CaMK1 (human) (UniProt Q14012)
DYRK1A (human) = DYRK1A (human) (UniProt Q13627)
EPHB3 (human) = EPHB3 (human) (UniProt P54753)
IGF1R (human) = IGF1R (human) (UniProt P08069)
INSR (human) = INSR (human) (UniProt P06213)
INSRR (human) = INSRR (human) (UniProt P14616)
JAK2 JH1 JH2 (human) = JAK2 JH1 JH2 (human) (UniProt O60674)
LCK (mouse) = settings: accession and sequence are those of the human protein
MAP2K1 (human) = MAP2K1 (human) (UniProt Q02750)
MAP3K11 (human) = MAP3K11 (human) (UniProt Q16584)
MAP3K9 (human) = MAP3K9 (human) (UniProt P80192)
MAPK10 (human) = MAPK10 (human) (UniProt P53779)
MAPK13 (human) = MAPK13 (human) (UniProt O15264)
MARK3 (human) = MARK3 (human) (UniProt P27448)
MARK4 (human) = MARK4 (human) (UniProt Q96L34)
MINK1 (human) = MINK1 (human) (UniProt Q8N4C8)
MKNK1 (human) = MKNK1 (human) (UniProt Q9BUB5)
MST4 (human) = MST4 (human) (UniProt Q9P289)
NTRK1 (human) = NTRK1 (human) (UniProt P04629)
NUAK1 (human) = NUAK1 (human) (UniProt O60285)
PAK4 (human) = PAK4 (human) (UniProt O96013)
PHKG1 (human) = PHKG1 (human) (UniProt Q16816)
PIM2 (human) = PIM2 (human) (UniProt Q9P1W9)
PRKAA1 or PRKAA2 (rat) = settings: accession and sequence are those of the human protein
PRKACA (human) = PRKACA (human) (UniProt P17612)
PRKCZ (human) = PRKCZ (human) (UniProt Q05513)
RIPK2 (human) = RIPK2 (human) (UniProt O43353)
SRC (human) = SRC (human) (UniProt P12931)
SYK (human) = SYK (human) (UniProt P43405)
YES1 (human) = YES1 (human) (UniProt P07947)

MAP3K11 (human), sequence (Q16584 whole entry, looked up): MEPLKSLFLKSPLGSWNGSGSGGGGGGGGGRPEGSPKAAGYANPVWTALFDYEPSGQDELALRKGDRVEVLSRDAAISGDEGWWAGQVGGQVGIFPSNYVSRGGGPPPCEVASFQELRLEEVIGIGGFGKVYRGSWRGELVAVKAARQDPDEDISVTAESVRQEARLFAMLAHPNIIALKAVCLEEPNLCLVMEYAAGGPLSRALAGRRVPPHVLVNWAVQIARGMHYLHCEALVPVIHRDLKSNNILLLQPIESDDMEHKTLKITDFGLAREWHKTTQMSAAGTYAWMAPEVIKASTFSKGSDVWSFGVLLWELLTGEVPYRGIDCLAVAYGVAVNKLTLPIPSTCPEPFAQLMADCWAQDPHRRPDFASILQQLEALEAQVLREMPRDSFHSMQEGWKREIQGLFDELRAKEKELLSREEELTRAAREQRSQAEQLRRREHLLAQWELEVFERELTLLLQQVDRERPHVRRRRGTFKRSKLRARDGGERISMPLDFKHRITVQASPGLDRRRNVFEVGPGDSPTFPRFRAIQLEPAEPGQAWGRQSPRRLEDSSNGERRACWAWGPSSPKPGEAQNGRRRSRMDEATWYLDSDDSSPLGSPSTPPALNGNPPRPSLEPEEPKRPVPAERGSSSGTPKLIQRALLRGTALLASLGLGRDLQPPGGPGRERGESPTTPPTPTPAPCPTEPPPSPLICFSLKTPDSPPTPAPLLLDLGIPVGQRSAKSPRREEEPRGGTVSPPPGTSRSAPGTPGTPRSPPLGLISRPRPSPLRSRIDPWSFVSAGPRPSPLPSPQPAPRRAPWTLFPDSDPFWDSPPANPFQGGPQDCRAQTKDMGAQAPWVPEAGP
CSNK2A1 (human), sequence (P68400 whole entry, looked up): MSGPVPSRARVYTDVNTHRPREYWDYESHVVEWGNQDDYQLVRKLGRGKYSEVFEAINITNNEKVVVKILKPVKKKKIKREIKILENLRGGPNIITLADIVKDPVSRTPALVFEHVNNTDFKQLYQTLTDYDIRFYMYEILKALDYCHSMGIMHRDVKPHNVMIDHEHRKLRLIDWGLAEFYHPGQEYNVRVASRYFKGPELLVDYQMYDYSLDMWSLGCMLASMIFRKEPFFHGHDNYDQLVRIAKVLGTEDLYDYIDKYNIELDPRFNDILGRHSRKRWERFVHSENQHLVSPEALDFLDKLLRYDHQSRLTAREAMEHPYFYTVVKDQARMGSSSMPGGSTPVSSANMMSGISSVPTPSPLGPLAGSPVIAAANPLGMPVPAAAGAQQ
RIPK2 (human), sequence (O43353 whole entry, looked up): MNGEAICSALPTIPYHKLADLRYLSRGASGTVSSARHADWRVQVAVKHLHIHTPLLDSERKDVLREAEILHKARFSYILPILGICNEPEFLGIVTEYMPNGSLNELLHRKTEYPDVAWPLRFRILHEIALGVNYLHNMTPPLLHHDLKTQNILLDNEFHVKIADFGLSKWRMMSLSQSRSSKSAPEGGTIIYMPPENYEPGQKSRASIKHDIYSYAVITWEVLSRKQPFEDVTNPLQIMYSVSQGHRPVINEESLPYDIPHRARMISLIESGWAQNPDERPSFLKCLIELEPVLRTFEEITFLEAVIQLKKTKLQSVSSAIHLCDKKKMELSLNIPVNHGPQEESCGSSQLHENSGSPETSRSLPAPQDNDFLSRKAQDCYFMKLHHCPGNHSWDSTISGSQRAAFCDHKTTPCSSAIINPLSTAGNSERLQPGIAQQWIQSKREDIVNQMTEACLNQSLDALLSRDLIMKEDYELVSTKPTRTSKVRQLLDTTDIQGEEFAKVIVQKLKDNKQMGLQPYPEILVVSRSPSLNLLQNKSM
JAK2 JH1 JH2 (human), sequence (O60674 whole entry, looked up): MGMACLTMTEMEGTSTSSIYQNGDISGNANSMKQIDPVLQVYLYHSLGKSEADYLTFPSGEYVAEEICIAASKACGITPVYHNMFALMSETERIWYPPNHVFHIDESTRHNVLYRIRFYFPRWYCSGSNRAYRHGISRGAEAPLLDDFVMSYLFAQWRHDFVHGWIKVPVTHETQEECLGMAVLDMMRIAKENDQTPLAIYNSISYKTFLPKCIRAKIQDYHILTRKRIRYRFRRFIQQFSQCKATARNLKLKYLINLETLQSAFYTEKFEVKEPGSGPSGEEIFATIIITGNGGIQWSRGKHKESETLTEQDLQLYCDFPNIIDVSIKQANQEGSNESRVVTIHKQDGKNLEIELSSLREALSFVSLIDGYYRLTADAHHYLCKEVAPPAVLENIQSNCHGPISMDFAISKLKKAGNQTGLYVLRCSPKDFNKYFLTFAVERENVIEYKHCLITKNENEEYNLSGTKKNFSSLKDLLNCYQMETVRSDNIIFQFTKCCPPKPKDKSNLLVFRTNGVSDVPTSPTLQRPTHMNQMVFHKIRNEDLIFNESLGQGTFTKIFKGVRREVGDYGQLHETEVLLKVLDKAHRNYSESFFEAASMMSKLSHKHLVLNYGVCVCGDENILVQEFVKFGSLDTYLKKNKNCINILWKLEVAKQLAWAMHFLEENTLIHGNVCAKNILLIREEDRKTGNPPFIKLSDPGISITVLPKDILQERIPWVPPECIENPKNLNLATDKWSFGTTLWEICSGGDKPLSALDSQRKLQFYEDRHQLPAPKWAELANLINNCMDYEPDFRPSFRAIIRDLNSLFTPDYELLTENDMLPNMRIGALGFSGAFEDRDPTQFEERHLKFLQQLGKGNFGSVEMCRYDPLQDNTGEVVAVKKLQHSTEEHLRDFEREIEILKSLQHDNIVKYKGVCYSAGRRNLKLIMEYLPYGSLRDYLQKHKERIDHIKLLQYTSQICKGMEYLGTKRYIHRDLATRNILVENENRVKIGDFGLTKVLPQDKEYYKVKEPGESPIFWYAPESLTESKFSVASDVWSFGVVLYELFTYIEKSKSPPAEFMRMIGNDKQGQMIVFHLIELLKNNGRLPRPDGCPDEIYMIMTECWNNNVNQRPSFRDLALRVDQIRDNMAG
NUAK1 (human), sequence (O60285 whole entry, looked up): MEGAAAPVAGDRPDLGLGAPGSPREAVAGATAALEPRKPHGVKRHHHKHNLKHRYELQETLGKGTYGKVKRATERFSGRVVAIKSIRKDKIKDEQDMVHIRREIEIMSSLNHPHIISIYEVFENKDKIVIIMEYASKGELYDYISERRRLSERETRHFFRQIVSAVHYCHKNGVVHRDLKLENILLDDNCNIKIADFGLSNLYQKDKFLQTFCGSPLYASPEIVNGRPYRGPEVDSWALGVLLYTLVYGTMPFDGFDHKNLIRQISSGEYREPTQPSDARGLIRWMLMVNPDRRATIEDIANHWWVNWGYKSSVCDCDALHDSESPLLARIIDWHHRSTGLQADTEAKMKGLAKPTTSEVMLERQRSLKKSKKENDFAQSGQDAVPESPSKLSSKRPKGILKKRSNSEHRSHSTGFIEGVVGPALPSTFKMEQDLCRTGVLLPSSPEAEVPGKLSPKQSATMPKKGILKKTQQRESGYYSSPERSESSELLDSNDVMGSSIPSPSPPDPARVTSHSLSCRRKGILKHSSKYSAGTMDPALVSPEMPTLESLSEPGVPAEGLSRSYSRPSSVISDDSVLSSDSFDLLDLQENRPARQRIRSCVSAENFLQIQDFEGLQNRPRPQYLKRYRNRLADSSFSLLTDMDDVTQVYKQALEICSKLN
CaMK1 (human), sequence (Q14012 whole entry, looked up): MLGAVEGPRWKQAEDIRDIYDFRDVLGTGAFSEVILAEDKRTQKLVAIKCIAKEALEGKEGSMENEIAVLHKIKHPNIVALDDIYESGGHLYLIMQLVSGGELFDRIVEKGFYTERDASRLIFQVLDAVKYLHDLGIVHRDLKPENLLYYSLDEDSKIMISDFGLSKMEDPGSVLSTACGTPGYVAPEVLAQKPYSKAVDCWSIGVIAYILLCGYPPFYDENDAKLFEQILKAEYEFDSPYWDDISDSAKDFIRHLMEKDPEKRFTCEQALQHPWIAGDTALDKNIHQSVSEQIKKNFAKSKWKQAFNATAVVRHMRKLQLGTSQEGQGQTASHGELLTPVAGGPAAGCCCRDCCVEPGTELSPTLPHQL
MARK3 (human), sequence (P27448 whole entry, looked up): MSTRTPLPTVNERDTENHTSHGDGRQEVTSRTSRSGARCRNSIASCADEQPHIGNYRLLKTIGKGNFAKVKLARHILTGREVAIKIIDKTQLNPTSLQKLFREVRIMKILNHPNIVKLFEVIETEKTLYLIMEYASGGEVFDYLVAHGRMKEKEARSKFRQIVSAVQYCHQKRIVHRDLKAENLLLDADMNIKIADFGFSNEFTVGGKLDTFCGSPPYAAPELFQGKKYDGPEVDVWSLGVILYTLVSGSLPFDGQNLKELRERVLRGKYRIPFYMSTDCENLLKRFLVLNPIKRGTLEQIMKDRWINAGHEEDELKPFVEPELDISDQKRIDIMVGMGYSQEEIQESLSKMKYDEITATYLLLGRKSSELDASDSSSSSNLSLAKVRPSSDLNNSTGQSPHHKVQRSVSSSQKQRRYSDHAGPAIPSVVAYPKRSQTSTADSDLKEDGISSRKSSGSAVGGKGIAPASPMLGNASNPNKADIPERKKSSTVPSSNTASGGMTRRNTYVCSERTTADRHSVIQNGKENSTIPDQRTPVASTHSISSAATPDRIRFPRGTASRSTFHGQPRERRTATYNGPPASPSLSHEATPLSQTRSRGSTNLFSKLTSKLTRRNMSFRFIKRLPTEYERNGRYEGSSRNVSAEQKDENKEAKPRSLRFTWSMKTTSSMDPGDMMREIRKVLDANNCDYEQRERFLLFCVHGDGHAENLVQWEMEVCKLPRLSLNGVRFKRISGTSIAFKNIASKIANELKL
AURKB (human), sequence (Q96GD4 whole entry, looked up): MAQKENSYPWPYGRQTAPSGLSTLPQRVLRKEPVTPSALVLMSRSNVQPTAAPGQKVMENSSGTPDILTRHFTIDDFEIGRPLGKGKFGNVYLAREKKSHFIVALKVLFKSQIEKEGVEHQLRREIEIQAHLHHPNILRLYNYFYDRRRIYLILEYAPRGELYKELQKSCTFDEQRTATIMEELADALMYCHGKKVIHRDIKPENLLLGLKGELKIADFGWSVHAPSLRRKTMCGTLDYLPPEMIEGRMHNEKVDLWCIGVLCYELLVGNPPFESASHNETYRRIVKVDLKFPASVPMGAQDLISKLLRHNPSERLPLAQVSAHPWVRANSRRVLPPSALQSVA

residual activity ([1]; compound 0.1 µM): 77% | residual activity ([1]; compound 1.0 µM): 91% | residual activity ([1]; compound 10.0 µM): 58% | residual activity (AURKB (human); compound 0.1 µM): 95% | residual activity (AURKB (human); compound 1.0 µM): 76% | residual activity (AURKB (human); compound 10.0 µM): 47% | residual activity (CAMKK2 (human); compound 0.1 µM): 43% | residual activity (CAMKK2 (human); compound 1.0 µM): 13% | residual activity (CAMKK2 (human); compound 10.0 µM): 8% | residual activity (CDK2 CCNA2 (human); compound 0.1 µM): 84% | residual activity (CDK2 CCNA2 (human); compound 1.0 µM): 84% | residual activity (CDK2 CCNA2 (human); compound 10.0 µM): 34% | residual activity (CHEK1 (human); compound 0.1 µM): 101% | residual activity (CHEK1 (human); compound 1.0 µM): 109% | residual activity (CHEK1 (human); compound 10.0 µM): 96% | residual activity (CSNK2A1 (human); compound 0.1 µM): 90% | residual activity (CSNK2A1 (human); compound 1.0 µM): 89% | residual activity (CSNK2A1 (human); compound 10.0 µM): 81% | residual activity (CaMK1 (human); compound 0.1 µM): 86% | residual activity (CaMK1 (human); compound 1.0 µM): 85% | residual activity (CaMK1 (human); compound 10.0 µM): 45% | residual activity (DYRK1A (human); compound 0.1 µM): 75% | residual activity (DYRK1A (human); compound 1.0 µM): 40% | residual activity (DYRK1A (human); compound 10.0 µM): 9% | residual activity (EPHB3 (human); compound 0.1 µM): 88% | residual activity (EPHB3 (human); compound 1.0 µM): 75% | residual activity (EPHB3 (human); compound 10.0 µM): 48% | residual activity (IGF1R (human); compound 0.1 µM): 112% | residual activity (IGF1R (human); compound 1.0 µM): 99% | residual activity (IGF1R (human); compound 10.0 µM): 89% | residual activity (INSR (human); compound 0.1 µM): 105% | residual activity (INSR (human); compound 1.0 µM): 107% | residual activity (INSR (human); compound 10.0 µM): 93% | residual activity (INSRR (human); compound 0.1 µM): 82% | residual activity (INSRR (human); compound 1.0 µM): 68% | residual activity (INSRR (human); compound 10.0 µM): 37% | residual activity (JAK2 JH1 JH2 (human); compound 0.1 µM): 100% | residual activity (JAK2 JH1 JH2 (human); compound 1.0 µM): 104% | residual activity (JAK2 JH1 JH2 (human); compound 10.0 µM): 79% | residual activity (LCK (mouse); compound 0.1 µM): 81% | residual activity (LCK (mouse); compound 1.0 µM): 40% | residual activity (LCK (mouse); compound 10.0 µM): 7% | residual activity (MAP2K1 (human); compound 0.1 µM): 98% | residual activity (MAP2K1 (human); compound 1.0 µM): 93% | residual activity (MAP2K1 (human); compound 10.0 µM): 67% | residual activity (MAP3K11 (human); compound 0.1 µM): 86% | residual activity (MAP3K11 (human); compound 1.0 µM): 33% | residual activity (MAP3K11 (human); compound 10.0 µM): 8% | residual activity (MAP3K9 (human); compound 0.1 µM): 104% | residual activity (MAP3K9 (human); compound 1.0 µM): 70% | residual activity (MAPK10 (human); compound 0.1 µM): 98% | residual activity (MAPK10 (human); compound 1.0 µM): 97% | residual activity (MAPK10 (human); compound 10.0 µM): 94% | residual activity (MAPK13 (human); compound 0.1 µM): 89% | residual activity (MAPK13 (human); compound 1.0 µM): 110% | residual activity (MAPK13 (human); compound 10.0 µM): 72% | residual activity (MARK3 (human); compound 0.1 µM): 78% | residual activity (MARK3 (human); compound 1.0 µM): 34% | residual activity (MARK3 (human); compound 10.0 µM): 11% | residual activity (MARK4 (human); compound 0.1 µM): 75% | residual activity (MARK4 (human); compound 1.0 µM): 58% | residual activity (MARK4 (human); compound 10.0 µM): 24% | residual activity (MINK1 (human); compound 0.1 µM): 74% | residual activity (MINK1 (human); compound 1.0 µM): 15% | residual activity (MINK1 (human); compound 10.0 µM): 4% | residual activity (MKNK1 (human); compound 0.1 µM): 82% | residual activity (MKNK1 (human); compound 1.0 µM): 63% | residual activity (MKNK1 (human); compound 10.0 µM): 39% | residual activity (MST4 (human); compound 0.1 µM): 105% | residual activity (MST4 (human); compound 1.0 µM): 123% | residual activity (MST4 (human); compound 10.0 µM): 181% | residual activity (NTRK1 (human); compound 0.1 µM): 87% | residual activity (NTRK1 (human); compound 1.0 µM): 71% | residual activity (NTRK1 (human); compound 10.0 µM): 38% | residual activity (NUAK1 (human); compound 0.1 µM): 57% | residual activity (NUAK1 (human); compound 1.0 µM): 17% | residual activity (NUAK1 (human); compound 10.0 µM): 5% | residual activity (PAK4 (human); compound 0.1 µM): 82% | residual activity (PAK4 (human); compound 1.0 µM): 94% | residual activity (PAK4 (human); compound 10.0 µM): 62% | residual activity (PHKG1 (human); compound 0.1 µM): 85% | residual activity (PHKG1 (human); compound 1.0 µM): 60% | residual activity (PHKG1 (human); compound 10.0 µM): 21% | residual activity (PIM2 (human); compound 0.1 µM): 98% | residual activity (PIM2 (human); compound 1.0 µM): 104% | residual activity (PIM2 (human); compound 10.0 µM): 92% | residual activity (PRKAA1 or PRKAA2 (rat); compound 0.1 µM): 96% | residual activity (PRKAA1 or PRKAA2 (rat); compound 1.0 µM): 59% | residual activity (PRKAA1 or PRKAA2 (rat); compound 10.0 µM): 18% | residual activity (PRKACA (human); compound 0.1 µM): 99% | residual activity (PRKACA (human); compound 1.0 µM): 101% | residual activity (PRKACA (human); compound 10.0 µM): 94% | residual activity (PRKCZ (human); compound 0.1 µM): 88% | residual activity (PRKCZ (human); compound 1.0 µM): 93% | residual activity (PRKCZ (human); compound 10.0 µM): 55% | residual activity (RIPK2 (human); compound 0.1 µM): 52% | residual activity (RIPK2 (human); compound 1.0 µM): 2% | residual activity (RIPK2 (human); compound 10.0 µM): 3% | residual activity (SRC (human); compound 1.0 µM): 52% | residual activity (SRC (human); compound 10.0 µM): 16% | residual activity (SYK (human); compound 0.1 µM): 82% | residual activity (SYK (human); compound 1.0 µM): 80% | residual activity (SYK (human); compound 10.0 µM): 36% | residual activity (YES1 (human); compound 0.1 µM): 73% | residual activity (YES1 (human); compound 1.0 µM): 21% | residual activity (YES1 (human); compound 10.0 µM): 7%
SMILES: c1ccc2c(-c3cnn4cc(-c5ccc(N6CCNCC6)cc5)cnc34)ccnc2c1
